Test results: patent US10125150B2, “Crystalline forms of a PI3K inhibitor” (Incyte Corporation, priority 2015, dated 2018)

Assays:
JAK2 (a.a. 828-1132) = JAK2 (a.a. 828-1132) (Homo sapiens (Human), UniProt O60674); test: In vitro JAK kinase assay (Example D), JAK2; assay type: biochemical; conditions: ratio JAK2/JAK1 of IC50s, 1 mM ATP
[1] = target: human JAK1 (a.a. 837-1142) (Homo sapiens, UniProt P23458); test: In vitro JAK kinase assay (Example D), JAK1; assay type: biochemical; conditions: 1 mM ATP
[2] = Competitive slurry experiments (stability of the crystalline forms), solid characterized by XRPD; assay type: physicochemical; conditions: 50° C.
Method: Forms I and X of the compound of Formula I were slurried together in a methanol-ethyl acetate (1:10) solvent system and heated at 50° C. for 5 days. Specifically, 5 mL of ethyl acetate and 0.5 mL of methanol were combined and heated to 50° C. Form I (from Example 1) was added to the solvent mixture until a cloudy solution formed (about 156 mg), and then additional Form I was added (about 50 mg). Then 50 mg of Form X (prepared as described in Example 12) was added. The mixture was stirred at 50° C. for 5 days and the solid was characterized and monitored by XRPD.
Forms I to XIII of the compound of Formula I were slurried together in a methanol-ethyl acetate (1:10) solvent system at room temperature for 8 days. Specifically, 10 mg of Form I (from Example 1) was added to 1 mL of ethyl acetate with stirring. Then 0.1 mL of methanol was added giving a cloudy solution to which 3 mg of additional Form I (from Example 1) was added. […]
Forms I and X of the compound of Formula I were slurried together in acetone and heated at 50° C. overnight. […] The mixture was stirred at 50° C. overnight and the solid was characterized and monitored by XRPD.
Forms I to XIII of the compound of Formula I were slurried together in acetone at room temperature for 11 days. […] The mixture was stirred at room temperature for 11 days and the resulting solid was characterized and monitored by XRPD.

[3] = Dynamic Vapor Sorption (DVS), moisture adsorption/desorption; assay type: physicochemical; conditions: 25° C.
Method: Dynamic Vapor Sorption (DVS) was performed in an SGA-100 Symmetric Vapor Sorption Analyzer from VTI Corporation. The moisture uptake profile was completed in three cycles in 10% RH increments with the first adsorption from 25% to 95% RH, followed by desorption in 10% increments from 95% to 5% RH. The equilibration criteria were 0.0050 wt % in 5 minutes with a maximum equilibration time of 180 minutes. All adsorption and desorption were performed at room temperature (25° C.). No pre-drying step was applied for the sample.
Moisture adsorption/desorption of Form I was analyzed by DVS. […] The shapes of the isotherms indicate weak adsorbent-adsorbate interaction and a low moisture uptake at low vapor concentration.

Sequence of JAK2 (a.a. 828-1132) (O60674 828-1132): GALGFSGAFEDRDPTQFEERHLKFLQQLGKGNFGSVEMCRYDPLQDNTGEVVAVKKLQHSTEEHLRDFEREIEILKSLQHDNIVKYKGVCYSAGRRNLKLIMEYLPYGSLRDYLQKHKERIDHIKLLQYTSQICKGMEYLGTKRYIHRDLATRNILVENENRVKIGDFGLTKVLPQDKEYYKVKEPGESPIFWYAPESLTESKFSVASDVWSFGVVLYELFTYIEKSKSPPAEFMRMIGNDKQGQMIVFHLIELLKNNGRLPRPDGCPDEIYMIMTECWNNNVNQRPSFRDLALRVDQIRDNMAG

SMILES	JAK2/JAK1 (JAK2 (a.a. 828-1132))	IC50 [1] [nM]	resulting crystalline form ([2]; Forms I and X slurried in acetone, overnight)	resulting crystalline form ([2]; Forms I and X slurried in methanol-ethyl acetate (1:10), 5 days)	initial water content (DVS) ([3]; no pre-drying)	water adsorption (DVS) ([3]; at 85% RH) [%]
N#CCC1(n2cc(-c3ncnc4[nH]ccc34)cn2)CN([C@H]2CC[C@@H](Oc3cc(CN4CC[C@H](O)C4)cc(C(F)(F)F)n3)CC2)C1 [Form 22, {1-(cis-4-{[4-{[(3S)-3-hydroxypyrrolidin-1-yl]methyl}-6-(trifluoromethyl)pyridin-2-yl]oxy}cyclohexyl)-3-[4-(7H-pyrrolo[2,3-d]pyrimidin-4-yl)-1H-pyrazol-1-yl]azetidin-3-yl}acetonitrile]	>10	< 10				
C[C@@H](CO)NCc1cc(OC2CCN([C@H]3C[C@](CC#N)(n4cc(-c5ncnc6[nH]ccc56)cn4)C3)CC2)nc(C(F)(F)F)c1 [Form 23, {trans-3-(4-{[4-({[(1S)-2-hydroxy-1-methylethyl]amino}methyl)-6-(trifluoromethyl)pyridin-2-yl]oxy}piperidin-1-yl)-1-[4-(7H-pyrrolo[2,3-d]pyrimidin-4-yl)-1H-pyrazol-1-yl]cyclobutyl}acetonitrile]	>10	< 10				
C[C@@H](O)CNCc1cc(OC2CCN([C@H]3C[C@](CC#N)(n4cc(-c5ncnc6[nH]ccc56)cn4)C3)CC2)nc(C(F)(F)F)c1 [Form 24, {trans-3-(4-{[4-({[(2R)-2-hydroxypropyl]amino}methyl)-6-(trifluoromethyl)pyridin-2-yl]oxy}piperidin-1-yl)-1-[4-(7H-pyrrolo[2,3-d]pyrimidin-4-yl)-1H-pyrazol-1-yl]cyclobutyl}acetonitrile]	>10	< 10				

Next, values leading:

JAK2/JAK1 (JAK2 (a.a. 828-1132))	IC50 [1] [nM]	resulting crystalline form ([2]; Forms I and X slurried in acetone, overnight)	resulting crystalline form ([2]; Forms I and X slurried in methanol-ethyl acetate (1:10), 5 days)	initial water content (DVS) ([3]; no pre-drying)	water adsorption (DVS) ([3]; at 85% RH) [%]	SMILES
>10	< 10					C[C@H](O)CNCc1cc(OC2CCN([C@H]3C[C@](CC#N)(n4cc(-c5ncnc6[nH]ccc56)cn4)C3)CC2)nc(C(F)(F)F)c1 [Form 25, {trans-3-(4-([4-({[(2S)-2-hydroxypropyl]amino}methyl)-6-(trifluoromethyl)pyridin-2-yl]oxy}piperidin-1-yl)-1-[4-(7H-pyrrolo[2,3-d]pyrimidin-4-yl)-1H-pyrazol-1-yl]cyclobutyl}acetonitrile]
>10	< 10					N#CC[C@]1(n2cc(-c3ncnc4[nH]ccc34)cn2)C[C@H](N2CCC(Oc3cc(CCO)cc(C(F)(F)F)n3)CC2)C1 [Form 26, {trans-3-(4-{[4-(2-hydroxyethyl)-6-(trifluoromethyl)pyridin-2-yl]oxy}piperidin-1-yl)-1-[4-(7H-pyrrolo[2,3-d]pyrimidin-4-yl)-1H-pyrazol-1-yl]cyclobutyl}acetonitrile]
		predominantly Form X	predominantly Form I	about 0.3%	1.8	Cc1csc2nc([C@H](C)Nc3ncnc4[nH]cnc34)c(-c3cccc(F)c3)c(=O)n12 [Form I, (S)-7-(1-(9H-purin-6-ylamino)ethyl)-6-(3-fluorophenyl)-3-methyl-5H-thiazolo[3,2-a]pyrimidin-5-one]
